Measured values from patent US11976083B2, “Inhibitors of peptidylarginine deiminases” (Gilead Sciences, Inc., priority 2020, dated 2024).
pIC50: −log10 of the molar value.

The molecules below were run against T1, human PAD4 (Homo sapiens, UniProt Q9UM07) (assay: In vitro PAD4 BAEE biochemical assay). Details: BAEE substrate 3 mM, 5 nM PAD4, 2 mM calcium chloride; geometric mean of multiple experiments.
T1 construct: human PAD4 (NM_012387), A2-P663, was PCR amplified; His-SUMO (N, cleaved yes); made in house; host or cells: E. coli BL21(DE3)
T1 sequence (Q9UM07 2-663): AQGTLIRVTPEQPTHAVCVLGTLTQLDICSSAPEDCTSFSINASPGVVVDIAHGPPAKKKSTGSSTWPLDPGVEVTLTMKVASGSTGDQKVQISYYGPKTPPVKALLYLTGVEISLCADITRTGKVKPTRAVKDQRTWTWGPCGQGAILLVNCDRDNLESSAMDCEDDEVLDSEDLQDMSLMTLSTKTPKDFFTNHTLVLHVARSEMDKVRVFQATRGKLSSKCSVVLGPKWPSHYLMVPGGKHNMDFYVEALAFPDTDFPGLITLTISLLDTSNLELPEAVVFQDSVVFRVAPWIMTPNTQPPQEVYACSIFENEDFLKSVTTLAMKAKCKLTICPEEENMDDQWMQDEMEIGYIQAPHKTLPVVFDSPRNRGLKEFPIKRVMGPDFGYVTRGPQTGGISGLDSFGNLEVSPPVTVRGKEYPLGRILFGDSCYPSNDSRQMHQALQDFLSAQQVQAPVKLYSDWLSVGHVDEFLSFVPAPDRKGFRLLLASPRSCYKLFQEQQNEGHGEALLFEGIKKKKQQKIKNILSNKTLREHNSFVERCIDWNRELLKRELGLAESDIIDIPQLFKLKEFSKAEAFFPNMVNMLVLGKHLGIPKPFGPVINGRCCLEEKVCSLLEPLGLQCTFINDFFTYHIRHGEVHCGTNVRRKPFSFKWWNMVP
In short: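 Assay was run at 25 °C using 3 mM BAEE and 5 nM human PAD4 after a 30 min compound preincubation; ammonia produced over 2 h was quantified by OPA-derived fluorescence. Full inhibition was defined by 50 µM BB-Cl-Amidine, and IC50 came from variable-slope nonlinear regression.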
With `CO[C@@H]1CCN(C(=O)c2cc(Cl)c3c(c2)nc(-c2cc4ccc5nc4n2CCCCC[C@@H]2CC2C(=O)N[C@@H]5C)n3C)C[C@@H]1N` (stereo partly drawn) [Example 505, (2~{R},7~{R})-14-[5-[(3~{S},4~{R})-3-amino-4-methoxy-piperidine-1-carbonyl]-7-chloro-1-methyl-benzimidazol-2-yl]-2-methyl-3,13,19-triazatetracyclo[11.5.2.0^ {5,7}.0^{16,20}]icosa-1(19),14,16(20),17-tetraen-4-one] the pIC50 was 7.01. For `C[C@H]1NC(=O)C2C[C@H]2CCCCCn2c(-c3nc4cc(C(=O)N5CCC[C@@H](N)C5)cc(Cl)c4n3C)cc3ccc1nc32` (stereo partly drawn) [Example 506, (2~{R},7~{R})-14-[5-[(3~ {R})-3-aminopiperidine-1-carbonyl]-7-chloro-1-methyl-benzimidazol-2-yl]-2-methyl-3,13,19-triazatetracyclo[11.5.2.0^ {5,7}.0^{16,20}]icosa-1(19), 14,16(20),17-tetraen-4-one], the pIC50 was 7.41. Molecule `C[C@H]1NC(=O)C2C[C@H]2CCCCCn2c(-c3nc4cc(C(=O)N[C@H]5CNCC[C@@H]5F)cc(Cl)c4n3C)cc3ccc1nc32` (stereo partly drawn) [Example 507, 7-chloro-~{N}-[(3~ {S},4~{S})-4-fluoro-3-piperidyl]-1-methyl-2-[(2~{R},7~{R})-2-methyl-4-oxo-3,13,19-triazatetracyclo[11.5.2.0^ {5,7}.0^{16,20}]icosa-1 (19),14,16(20),17-tetraen-14-yl]benzimidazole-5-carboxamide] has a pIC50 of 7.49. `COc1cc(C(=O)N2CC3(CCCNC3)C2)cc2nc(-c3cc4ccc5nc4n3CCCCC[C@@H]3CC3C(=O)N[C@@H]5C)n(C)c12` (stereo partly drawn) [Example 508, (2~{R},7~{R})-14-[5-(2,8-diazaspiro [3.5]nonane-2-carbonyl)-7-methoxy-1-methyl-benzimidazol-2-yl]-2-methyl-3,13,19-triazatetracyclo[11.5.2.0^ {5,7}.0^{16,20}]icosa-1(19),14,16(20),17-tetraen-4-one] showed a pIC50 of 7.24. For `COc1cc(C(=O)N[C@H](C)CN)cc2nc(-c3cc4ccc5nc4n3CCCCC[C@@H]3CC3C(=O)N[C@@H]5C)n(C)c12` (stereo partly drawn) [Example 509, ~{N}-[(1~{R})-2-amino-1-methyl-ethyl]-7-methoxy-1-methyl-2-[(2~{R},7~{R})-2-methyl-4-oxo-3,13,19-triazatetracyclo[11.5.2.0^ {5,7}.0^{16,20}]icosa-1(19),14,16(20),17-tetraen-14-yl]benzimidazole-5-carboxamide], the pIC50 was 6.84. In the case of `COCCn1c(-c2cc3ccc4nc3n2CCCCCc2nccnc2C(=O)N[C@@H]4C)nc2cc(C(=O)N3CC[C@@H](OC)[C@@H](N)C3)cc(OC)c21` [Example 510, (2~{R})-17-[5-[(3~ {S),4~{R})-3-amino-4-methoxy-piperidine-1-carbonyl]-7-methoxy-1-(2-methoxyethyl)benzimidazol-2-yl]-2-methyl-3,6,9,16,22-pentazatetracyclo[14.5.2.0^ {5,10}.0^{19,23}] tricosa-1(22),5(10),6,8,17,19 (23),20-heptaen-4-one], the pIC50 was 6.56. `CO[C@@H]1CCN(C(=O)c2cc(OC(F)F)c3c(c2)nc(-c2cc4ccc5nc4n2CCCCC[C@@H]2C[C@H]2C(=O)N[C@@H]5C)n3C)C[C@@H]1N` [Example 511, (2~{R},5~{R}, 7~{R})-14-[5-[(3~{S},4~{R})-3-amino-4-methoxy-piperidine-1-carbonyl]-7-(difluoromethoxy)-1-methyl-benzimidazol-2-yl]-2-methyl-3,13,19-triazatetracyclo[11.5.2.0^ {5,7}.0^{16,20}] icosa-1(19),14,16(20), 17-tetraen-4-one] showed a pIC50 of 7.02. For `CO[C@@H]1CCN(C(=O)c2cc(F)c3c(c2)nc(-c2cc4ccc5nc4n2CCCCC[C@@H]2CC2C(=O)N[C@@H]5C)n3C)C[C@@H]1N` (stereo partly drawn) [Example 512, (2~{R},5~{R},7~ {R})-14-[5-[(3~{S},4~{R})-3-amino-4-methoxy-piperidine-1-carbonyl]-7-fluoro-1-methyl-benzimidazol-2-yl]-2-methyl-3,13,19-triazatetracyclo[11.5.2.0^ {5,7}.0^{16,20}]icosa-1(19),14,16(20),17-tetraen-4-one], the pIC50 was 7.19. For `CO[C@@H]1CCN(C(=O)c2cc(F)c3c(c2)nc(-c2cc4ccc5nc4n2CCCCCc2nccnc2C(=O)N[C@@H]5C)n3C)C[C@@H]1N` [Example 513, (2~{R})-17-[5-[(3~ {S},4~{R})-3-amino-4-methoxy-piperidine-1-carbonyl]-7-fluoro-1-methyl-benzimidazol-2-yl]-2-methyl-3,6,9,16,22-pentazatetracyclo[14.5.2.0^ {5,10}.0^{19,23}] tricosa-1(22),5(10),6,8,17,19 (23),20-heptaen-4-one], the pIC50 was 6.79. Molecule `COc1cc(C(=O)N(C)[C@H]2CNCC[C@@H]2F)cc2nc(-c3cc4ccc5nc4n3CCCCCCC(C)(C)C(=O)N[C@@H]5C)n(C)c12` [Example 514, ~{N}-[(3~{S},4~{S})-4-fluoro-3-piperidyl]-7-methoxy-~{N},1-dimethyl-2-[(11~{R})-8,8,11-trimethyl-9-oxo-1,10,19-triazatricyclo[10.5.2.0^ {15,18}]nonadeca-12(19),13,15(18),16-tetraen-17-yl]benzimidazole-5-carboxamide] has a pIC50 of 6.43. With `C[C@H]1NC(=O)C(C)(C)CCCCCn2c(-c3nc4cc(C(=O)N[C@H]5CNCC[C@@H]5F)c(F)cc4n3C3CC3)cc3ccc1nc32` [Example 515, 1-cyclopropyl-6-fluoro- ~{N}-[(3~{S},4~{S})-4-fluoro-3-piperidyl]-2-[(10~{R})-7,7,10-trimethyl-8-oxo-1,9,18-triazatricyclo [9.5.2.0^{14,17}]octadeca-11(18),12,14(17),15-tetraen-16-yl]benzimidazole-5-carboxamide] the pIC50 was 7.13. In the case of `COc1cc(C(=O)N[C@H]2CNCC[C@@H]2F)cc2nc(-c3cc4ccc5nc4n3CC/C=C\C[C@H]3C[C@H]3C(=O)N[C@@H]5C)n(C)c12` [Example 516, ~{N}-[(3~{S},4~ {S})-4-fluoro-3-piperidyl]-7-methoxy-1-methyl-2-[(2~{R},5~{R},7~ {S},9~{Z})-2-methyl-4-oxo-3,13,19-triazatetracyclo[11.5.2.0^ {5,7}.0^{16,20}]icosa-1(19),9,14,16(20),17-pentaen-14-yl]benzimidazole-5-carboxamide], the pIC50 was 7.32. With `COc1cc(C(=O)N2CC[C@@H](OC)[C@@H](N)C2)cc2nc(-c3cc4ccc5nc4n3CC/C=C\C[C@H]3C[C@H]3C(=O)N[C@@H]5C)n(C)c12` [Example 517, (2~{R},5~{R},7~ {S},9~{Z})-14-[5-[(3~{S},4~{R})-3-amino-4-methoxy-piperidine-1-carbonyl]-7-methoxy-1-methyl-benzimidazol-2-yl]-2-methyl-3,13,19-triazatetracyclo[11.5.2.0^ {5,7}.0^{16,20}] icosa-1(19),9,14,16(20), 17-pentaen-4-one] the pIC50 was 6.89. Work on `COc1cc(C(=O)N[C@H]2CNCC[C@@H]2F)cc2nc(-c3cc4ccc5nc4n3CCCCC[C@H]3C[C@H]3C(=O)N[C@@H]5C)n(C)c12` [Example 518] yielded a pIC50 of 7.31. In the case of `C[C@H]1NC(=O)[C@@H]2C[C@@H]2C/C=C\CCn2c(-c3nc4cc(C(=O)N[C@H]5CNCC[C@@H]5F)c(F)cc4n3C3CC3)cc3ccc1nc32` [Example 519, 1-cyclopropyl-6-fluoro-~{N}-[(3~{S},4~{S})-4-fluoro-3-piperidyl]-2-[(2~{R}, 5~{R},7~{S},9~{Z})-2-methyl-4-oxo-3,13,19-triazatetracyclo[11.5.2.0^ {5,7}.0^{16,20}]icosa-1 (19),9,14,16(20),17-pentaen-14-yl]benzimidazole-5-carboxamide], the pIC50 was 7.36.
